For data set [1], the system named is Toxoplasma gondii adenosine kinase. The note with it: cited from earlier work; for Km: read-out: Km (binding affinity), apparent Km equal to apparent Ki.
For data set [2], the system named is adenosine kinase deficient (TgAK^-3) strain of T. gondii. As to the kind of experiment: Anti-toxoplasmic activity in tissue culture. Format: cell-based, Toxoplasma gondii. Particulars: TgAK^-3 in human fibroblasts.
Data set [3] deals with wild type (RH) strain of T. gondii. The data set is described as follows: Anti-toxoplasmic activity in tissue culture. Format: cell-based, Toxoplasma gondii. Particulars: wild type (RH) in human fibroblasts.
Data set [4] deals with uninfected human foreskin fibroblasts. The data set is described as follows: Host toxicity, MTT assay on uninfected host cells. Particulars: infection: None.
The target of data set [5] is purified T. gondii adenosine kinase (Toxoplasma gondii, UniProt Q9TVW2). The data set is described as follows: Alternative substrate assay with purified recombinant enzyme. Format: biochemical. The note with it: 100 μM analogue, overnight at 37°C, HPLC.
Sequence of purified T. gondii adenosine kinase (Q9TVW2 whole entry): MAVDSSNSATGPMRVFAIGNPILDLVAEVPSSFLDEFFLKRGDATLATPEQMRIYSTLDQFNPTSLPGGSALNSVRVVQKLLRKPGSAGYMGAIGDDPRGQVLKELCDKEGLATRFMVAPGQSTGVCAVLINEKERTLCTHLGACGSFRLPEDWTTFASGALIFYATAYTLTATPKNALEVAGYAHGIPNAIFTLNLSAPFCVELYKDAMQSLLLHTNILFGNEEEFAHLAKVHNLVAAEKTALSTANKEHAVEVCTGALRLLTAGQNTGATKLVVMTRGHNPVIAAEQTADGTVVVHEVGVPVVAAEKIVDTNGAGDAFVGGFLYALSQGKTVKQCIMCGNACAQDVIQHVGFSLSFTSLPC

The term Km denotes the concentration of substrate that gives half-maximal velocity.

On to 7-deaza-6-(p-methylbenzylthio)inosines, for which the “increase of relative binding affinity by inclusion of the 7-deaza motif” value in data set [1] (relative to 6-(p-methylbenzylthio)inosine) is 2.8 fold.

Take “6-Benzylthioinosine [Compound 22, reference compound]”: in data set [1], the Km was 14.3 µM. In addition, the “percent survival of parasite” value in data set [2] (5 μM compound) came out at 100%; in data set [2] (10 μM compound) it was 100%; in data set [2] (25 μM compound) it was 100%; in data set [2] (50 μM compound), 100%; in data set [3] (5 μM compound), 92.7%; in data set [3] (10 μM compound), 45.8%. Further, the “percent survival of parasite” value in data set [3] (25 μM compound) was 7.6%; in data set [3] (50 μM compound), 0.0%.

For the compound `OCC1CC(n2cnc3c(SCc4ccc(Cl)cc4)ncnc32)C(O)C1O` (stereo not shown) [Compound 9, Carbocyclic 6-(p-chlorobenzylthio)inosine], the “host-toxicity (survival of uninfected host cells)” value (“host-toxicity” below) in data set [4] (5 μM compound), in data set [4] (10 μM compound), in data set [4] (25 μM compound) and in data set [4] (50 μM compound) was 100% each time. The “percent survival of parasite” value in data set [2] (5 μM compound) is 100%; in data set [2] (10 μM compound), 100%; in data set [2] (25 μM compound), 100%; in data set [2] (50 μM compound), 100%; in data set [3] (5 μM compound), 72.9%; in data set [3] (10 μM compound) it was 11.9%. For the same compound, the “percent survival of parasite” value in data set [3] (25 μM compound) and in data set [3] (50 μM compound) was 0.0% in each case.

Regarding `CS(=O)(=O)c1ccc(CSc2ncnc3c2ncn3C2CC(CO)C(O)C2O)cc1` (stereo not shown) [Compound 17, Carbocyclic 6-(p-methylsulfonylbenzylthio)inosine], the “host-toxicity” value in data set [4] (5 μM compound), in data set [4] (10 μM compound), in data set [4] (25 μM compound) and in data set [4] (50 μM compound) was 100% throughout. Also, the “percent survival of parasite” value in data set [2] (5 μM compound) is reported as 100%; in data set [2] (10 μM compound), 100%; in data set [2] (25 μM compound) it was 100%; in data set [2] (50 μM compound) it was 100%; in data set [3] (5 μM compound), 66.8%; in data set [3] (10 μM compound), 21.2%. The “percent survival of parasite” value in data set [3] (25 μM compound) and in data set [3] (50 μM compound) was 0.0% throughout.

In the case of `O=[N+]([O-])c1cccc(CSc2ncnc3c2ncn3C2CC(CO)C(O)C2O)c1` (stereo not shown) [Compound 7, Carbocyclic 6-(m-nitrobenzylthio)inosine], the “host-toxicity” value in data set [4] (5 μM compound), in data set [4] (10 μM compound), in data set [4] (25 μM compound) and in data set [4] (50 μM compound) was 100% each time. Besides, the “percent survival of parasite” value in data set [2] (5 μM compound) stood at 100%; in data set [2] (10 μM compound), 100%; in data set [2] (25 μM compound) it was 100%; in data set [2] (50 μM compound), 100%; in data set [3] (5 μM compound), 84.4%; in data set [3] (10 μM compound), 50.9%. For the same compound, the entries for the “percent survival of parasite” value in data set [3] (25 μM compound) and in data set [3] (50 μM compound) were 4.2% and 0.0%, respectively.

Consider `OCC1CC(n2cnc3c(SCc4ccccc4F)ncnc32)C(O)C1O` (stereo not shown) [Compound 2, Carbocyclic 6-(o-fluorobenzylthio)inosine], for which the “host-toxicity” value in data set [4] (5 μM compound) is reported as 100%; in data set [4] (10 μM compound), 100%; in data set [4] (25 μM compound), 100%; in data set [4] (50 μM compound), 85.8%. Further, the “percent survival of parasite” value in data set [2] (5 μM compound) is 100%; in data set [2] (10 μM compound), 100%; in data set [2] (25 μM compound), 100%; in data set [2] (50 μM compound) it was 100%; in data set [3] (5 μM compound) it was 98.6%; in data set [3] (10 μM compound) it was 93.7%. Further, the “percent survival of parasite” value in data set [3] (25 μM compound) is given as 39.2%; in data set [3] (50 μM compound), 12.7%.

`COc1ccc(CSc2ncnc3c2ncn3C2CC(CO)C(O)C2O)cc1` (stereo not shown) [Compound 15, Carbocyclic 6-(p-methoxybenzylthio)inosine]: the “host-toxicity” value in data set [4] (5 μM compound) stood at 100%; in data set [4] (10 μM compound), 100%; in data set [4] (25 μM compound) it was 94.3%; in data set [4] (50 μM compound), 82.1%. In addition, the “percent survival of parasite” value in data set [2] (5 μM compound) was 98.4%; in data set [2] (10 μM compound), 100%; in data set [2] (25 μM compound), 100%; in data set [2] (50 μM compound), 100%; in data set [3] (5 μM compound) it was 48.3%; in data set [3] (10 μM compound), 1.9%. For the same compound, the “percent survival of parasite” value in data set [3] (25 μM compound) and in data set [3] (50 μM compound) was 0.0% each time.

With `OCC1CC(n2cnc3c(SCc4ccccc4Cl)ncnc32)C(O)C1O` (stereo not shown) [Compound 3, Carbocyclic 6-(o-chlorobenzylthio)inosine], the “host-toxicity” value in data set [4] (5 μM compound), in data set [4] (10 μM compound), in data set [4] (25 μM compound) and in data set [4] (50 μM compound) was 100% throughout. For the same compound, the “percent survival of parasite” value in data set [2] (5 μM compound) is listed as 100%; in data set [2] (10 μM compound) it was 100%; in data set [2] (25 μM compound) it was 100%; in data set [2] (50 μM compound), 100%; in data set [3] (5 μM compound), 79.5%; in data set [3] (10 μM compound) it was 48.8%. The “percent survival of parasite” value amounted to 9.8% in data set [3] (25 μM compound) and 2.2% in data set [3] (50 μM compound).

For the compound `COC(=O)c1ccc(CSc2ncnc3c2ncn3C2CC(CO)C(O)C2O)cc1` (stereo not shown) [Compound 14, Carbocyclic 6-(p-methoxycarbonylbenzylthio)inosine], the “host-toxicity” value in data set [4] (5 μM compound) turned out to be 100%; in data set [4] (10 μM compound), 99.4%; in data set [4] (25 μM compound), 88.7%; in data set [4] (50 μM compound) it was 87.1%. Moreover, the “percent survival of parasite” value came to 100% in data set [2] (5 μM compound); 100% in data set [2] (10 μM compound); 100% in data set [2] (25 μM compound); 100% in data set [2] (50 μM compound); 53.9% in data set [3] (5 μM compound); 6.3% in data set [3] (10 μM compound). The “percent survival of parasite” value amounted to 1.5% in data set [3] (25 μM compound) and 0.0% in data set [3] (50 μM compound).

Take `OCC1CC(n2cnc3c(SCc4ccccc4)ncnc32)C(O)C1O` (stereo not shown) [Compound 1, Carbocyclic 6-(benzylthio)inosine]: the “host-toxicity” value in data set [4] (5 μM compound) is on record as 100%; in data set [4] (10 μM compound), 100%; in data set [4] (25 μM compound), 100%; in data set [4] (50 μM compound), 94.3%. Besides, in data set [1], the Michaelis-Menten constant (Km) is 105 µM. Further, the “metabolism to nucleoside 5'-monophosphate by the enzyme” value in data set [5] is “converted to their respective nucleoside 5’-monophosphates”. The “percent survival of parasite” value in data set [2] (5 μM compound) turned out to be 100%; in data set [2] (10 μM compound) it was 100%; in data set [2] (25 μM compound) it was 100%; in data set [2] (50 μM compound) it was 100%; in data set [3] (5 μM compound), 84.7%; in data set [3] (10 μM compound) it was 42.7%. In addition, the figures for the “percent survival of parasite” value in data set [3] (25 μM compound) and in data set [3] (50 μM compound) were 4.9% and 0.0%, respectively.

For `OCC1CC(n2cnc3c(SCc4ccc(F)cc4)ncnc32)C(O)C1O` (stereo not shown) [Compound 8, Carbocyclic 6-(p-fluorobenzylthio)inosine], the “host-toxicity” value in data set [4] (5 μM compound), in data set [4] (10 μM compound), in data set [4] (25 μM compound) and in data set [4] (50 μM compound) was 100% throughout. In addition, the “metabolism to nucleoside 5'-monophosphate by the enzyme” value in data set [5] is “its 5’-monophosphate derivative appeared as a new peak”. Further, the “percent survival of parasite” value in data set [2] (5 μM compound) turned out to be 100%; in data set [2] (10 μM compound) it was 100%; in data set [2] (25 μM compound) it was 100%; in data set [2] (50 μM compound) it was 100%; in data set [3] (5 μM compound), 89.2%; in data set [3] (10 μM compound), 61.5%. In addition, the “percent survival of parasite” value is reported as 12.4% in data set [3] (25 μM compound) and 3.4% in data set [3] (50 μM compound).

`Cc1ccccc1CSc1ncnc2c1ncn2C1CC(CO)C(O)C1O` (stereo not shown) [Compound 4, Carbocyclic 6-(o-methylbenzylthio)inosine]: the “host-toxicity” value in data set [4] (5 μM compound) came out at 100%; in data set [4] (10 μM compound), 100%; in data set [4] (25 μM compound) it was 100%; in data set [4] (50 μM compound) it was 99.2%. In addition, the “percent survival of parasite” value in data set [2] (5 μM compound) is on record as 100%; in data set [2] (10 μM compound), 100%; in data set [2] (25 μM compound), 100%; in data set [2] (50 μM compound), 100%; in data set [3] (5 μM compound) it was 82.7%; in data set [3] (10 μM compound), 45.4%. Also, the entries for the “percent survival of parasite” value in data set [3] (25 μM compound) and in data set [3] (50 μM compound) were 7.6% and 0.0%, respectively.

Values taken from paper PMC2923275 (Biochemical pharmacology, 2010).
